Legend:
[1] = molecular target: T1, Human immunodeficiency virus type 1 reverse transcriptase (Human immunodeficiency virus 1, UniProt Q72547); experiment: Inhibition of RNA-dependent DNA polymerase activity of wild type HIV1 subtype B reverse transcriptase by filter-based filtration assay
[2] = molecular target: T2, Human immunodeficiency virus type 1 reverse transcriptase (Human immunodeficiency virus 1, UniProt Q72547, M230L); experiment: Inhibition of RNA-dependent DNA polymerase activity of HIV1 subtype B reverse transcriptase M230L mutant by filter-based filtration assay
[3] = system: Human immunodeficiency virus 1; experiment: Selectivity ratio of IC50 for RNA-dependent DNA polymerase activity of HIV1 subtype B reverse transcriptase M230L mutant to IC50 for RNA-dependent DNA polymerase activity of wild type HIV1 subtype B reverse transcriptase
[4] = molecular target: T1, Human immunodeficiency virus type 1 reverse transcriptase; experiment: Inhibition of DNA-dependent DNA polymerase activity of wild type HIV1 subtype B reverse transcriptase by gel-based primer extension assay
[5] = molecular target: T2, Human immunodeficiency virus type 1 reverse transcriptase; experiment: Inhibition of DNA-dependent DNA polymerase activity of HIV1 subtype B reverse transcriptase M230L mutant by gel-based primer extension assay
[6] = system: Human immunodeficiency virus 1; experiment: Selectivity ratio of IC50 for DNA-dependent DNA polymerase activity of HIV1 subtype B reverse transcriptase M230L mutant to IC50 for DNA-dependent DNA polymerase activity of wild type HIV1 subtype B reverse transcriptase
[7] = system: Human immunodeficiency virus 1; experiment: Antiviral activity against HIV 1 subtype B harboring wild type reverse transcriptase infected in human TZM-bl cells assessed as inhibition of viral growth by luciferase reporter gene assay; assay type: functional, organism-based; conditions: Human immunodeficiency virus 1, subtype B
[8] = system: Human immunodeficiency virus 1; experiment: Antiviral activity against HIV 1 subtype B harboring reverse transcriptase M230L mutant infected in human TZM-bl cells assessed as inhibition of viral growth by luciferase reporter gene assay; assay type: functional, organism-based; conditions: Human immunodeficiency virus 1, subtype B
[9] = system: Human immunodeficiency virus 1; experiment: Selectivity ratio of EC50 for antiviral activity against HIV 1 subtype B harboring reverse transcriptase M230L mutant to EC50 for antiviral activity against HIV 1 subtype B harboring wild type reverse transcriptase; assay type: functional

Row | Compound | IC50 [1] [nM] | IC50 [2] [nM] | Selectivity ratio [3] | IC50 [4] [nM] | IC50 [5] [nM] | Selectivity ratio [6] | EC50 [7] [nM] | EC50 [8] [nM] | Selectivity ratio [9]
1 | Cc1cc(C)c(Nc2ccnc(Nc3ccc(C#N)cc3)n2)c(C)c1 [DAPIVIRINE] | 19 | 172 | 9.1 | 131 | 1290 | 9.9 | 0.91 | 5.8 | 6.4
2 | O=C1Nc2ccc(Cl)cc2[C@@](C#CC2CC2)(C(F)(F)F)O1 [EFAVIRENZ] | – | – | – | – | – | – | 3.57 | 64.3 | –
3 | Cc1cc(C#N)cc(C)c1Oc1nc(Nc2ccc(C#N)cc2)nc(N)c1Br [ETRAVIRINE] | – | – | – | – | – | – | 1.25 | 7.27 | –
4 | Cc1ccnc2c1NC(=O)c1cccnc1N2C1CC1 [NEVIRAPINE] | – | – | – | – | – | – | 163 | 2690 | –
